Source: EP4467535A1, “LACTAM PESTICIDAL COMPOUNDS” (priority 2023, dated 2024)

Columns and labels:
Assay type in all cases: in vivo
[1] = system: Yellow fever mosquito (Aedes aegypti); assay: whole plant or invertebrate; conditions: 48 h, larval mortality visually assessed after 2 days at 28 ± 1°C, read-out: mortality in comparison with untreated controls
Description: Example B1: Action on Yellow fever mosquito (Aedes aegypti)
For evaluating control of yellow fever mosquito (Aedes aegypti) the test unit consisted of 96-well-microtiter plates containing 200µL of tap water per well and 5-15 freshly hatched A. aegypti larvae.
The active compounds or mixtures were formulated using a solution containing 75% (v/v) water and 25% (v/v) DMSO. Different concentrations of formulated compounds or mixtures were sprayed onto the insect diet at 2.5µL, using a custom-built micro atomizer, at two replications.
For experimental mixtures in these tests identical volumes of both mixing partners at the desired concentrations respectively, were mixed together.
After application, microtiter plates were incubated at 28 ± 1°C, 80 ± 5 % relative humidity for 2 days. Larval mortality was then visually assessed.

[2] = system: Orchid thrips (Dichromothrips corbetti); assay: Action on Orchid thrips (Dichromothrips corbetti), floral-immersion technique; conditions: adult thrips on dipped orchid petals, 72 hours after treatment, read-out: mortality in comparison with untreated controls
Description: Example B2: Action on Orchid thrips (Dichromothrips corbetti)
Dichromothrips corbetti adults used for bioassay were obtained from a colony maintained continuously under laboratory conditions. For testing purposes, the test compound is diluted in a 1:1 mixture of acetone:water (vol:vol), plus Kinetic® HV at a rate of 0.01% v/v.
Thrips potency of each compound was evaluated by using a floral-immersion technique. All petals of individual, intact orchid flowers were dipped into treatment solution and allowed to dryin Petri dishes. Treated petals were placed into individual re-sealable plastic along with about 20 adult thrips. All test arenas were held under continuous light and a temperature of about 28°C for duration of the assay. After 3 days, the numbers of live thrips were counted on each petal. The percent mortality was recorded 72 hours after treatment.

[3] = system: Boll weevil (Anthonomus grandis); assay: Action on Boll weevil (Anthonomus grandis), 96-well microtiter plate insect diet test; conditions: 120 h, egg and larval mortality visually assessed after 5 days, read-out: mortality in comparison with untreated controls
Description: Example B3: Action on Boll weevil (Anthonomus grandis )
For evaluating control of boll weevil (Anthonomus grandis) the test unit consisted of 96-well-microtiter plates containing an insect diet and 5-10 A. grandis eggs.
The compounds were formulated using a solution containing 75% (v/v) water and 25% (v/v) DMSO. Different concentrations of formulated compounds were sprayed onto the insect diet at 5 µL, using a custom-built micro atomizer, at two replications.
After application, microtiter plates were incubated at about 25 + 1°C and about 75 + 5 % relative humidity for 5 days. Egg and larval mortality were then visually assessed.

[4] = system: Tobacco budworm (Heliothis virescens); assay: Action on Tobacco budworm (Heliothis virescens), 96-well microtiter plate insect diet test; conditions: 120 h, egg and larval mortality visually assessed after 5 days, read-out: mortality in comparison with untreated controls
Description: Example B5: Action on Tobacco budworm (Heliothis virescens)
For evaluating control of tobacco budworm (Heliothis virescens) the test unit consisted of 96-well-microtiter plates containing an insect diet and 15-25 H. virescens eggs.
The compounds were formulated using a solution containing 75% v/v water and 25% v/v DMSO. Different concentrations of formulated compounds were sprayed onto the insect diet at 10 µl, using a custom-built micro atomizer, at two replications.
After application, microtiter plates were incubated at about 28 + 1°C and about 80 + 5 % relative humidity for 5 days. Egg and larval mortality were then visually assessed.

[5] = system: Diamond back moth (Plutella xylostella); assay: Action on Diamond back moth (Plutella xylostella), cabbage leaf dip test; conditions: foliar, third instar larvae on dipped cabbage leaves, 72 hours after treatment, read-out: mortality in comparison with untreated controls
Description: Example B6: Action on Diamond back moth (Plutella xylostella)
The active compound is dissolved at the desired concentration in a mixture of 1:1 (v/v) distilled water: acetone. Surfactant (Kinetic® HV) is added at a rate of 0.01% (v/v). The test solution is prepared at the day of use.
Leaves of cabbage were dipped in test solution and air-dried. Treated leaves were placed in petri dishes lined with moist filter paper and inoculated with ten third instar larvae. Mortality was recorded 72 hours after treatment. Feeding damages were also recorded using a scale of 0-100%.

[6] = system: Southern armyworm (Spodoptera eridania), second instar larvae; assay: Action on Southern armyworm (Spodoptera eridania), sprayed lima bean plants; conditions: 96 h, 4 days after treatment, read-out: mortality in comparison with untreated controls
Description: Example B7: Action on Southern armyworm (Spodoptera eridania), second instar larvae
The active compounds were formulated by a Tecan liquid handler in 100% cyclohexanone as a 10,000 ppm solution supplied in tubes. The 10,000 ppm solution was serially diluted in 100% cyclohexanone to make interim solutions. These served as stock solutions for which final dilutions were made by the Tecan in 50% acetone:50% water (v/v) into 10 or 20 mL glass vials. A nonionic surfactant (Kinetic®) was included in the solution at a volume of 0.01% (v/v). The vials were then inserted into an automated electrostatic sprayer equipped with an atomizing nozzle for application to plants/insects.
Lima bean plants (variety Sieva) were grown 2 plants to a pot and selected for treatment at the 1st true leaf stage. Test solutions were sprayed onto the foliage by an automated electrostatic plant sprayer equipped with an atomizing spray nozzle. The plants were dried in the sprayer fume hood and then removed from the sprayer. Each pot was placed into perforated plastic bags with a zip closure. About 10 to 11 armyworm larvae were placed into the bag and the bags zipped closed. Test plants were maintained in a growth room at about 25°C and about 20-40% relative humidity for 4 days, avoiding direct exposure to fluorescent light (24 hour photoperiod) to prevent trapping of heat inside the bags. Mortality and reduced feeding were assessed 4 days after treatment, compared to untreated control plants.

[7] = system: Diamond back moth (Plutella xylostella); assay: Action on Diamond back moth (Plutella xylostella), 96-well microtiter plate insect diet test; conditions: 120 h, read-out: mortality in comparison with untreated controls
Description: Example B8: Action on Diamond back moth (Plutella xylostella)
For evaluating control of diamond back moth (Plutella xylostella) the test unit consisted of 96-well-microtiter plates containing an insect diet and 15-25 P. xylostella eggs. The compounds or mixtures were formulated using a solution containing 75% water and 25% DMSO. Different concentrations of formulated compounds or mixtures were sprayed onto the insect diet at 5µl, using a custom-built micro atomizer, at two replications. For experimental mixtures in these tests identical volumes of both mixing partners at the desired concentrations respectively, were mixed together. After application, microtiter plates were incubated at 28 ± 1°C, 80 ± 5 % relative humidity for 5 days. Egg and larval mortality was then visually assessed.

SMILES	mortality at 800 ppm [1] [%]	mortality at 300 ppm [2] [%]	mortality at 800 ppm [3] [%]	mortality at 800 ppm [4] [%]	mortality at 300 ppm [5] [%]	mortality at 300 ppm [6] [%]	mortality at 800 ppm [7] [%]
Cc1ccc(C(C)C)c(NC(=S)N/N=C/c2ccc(-c3nn(C)c(N4Cc5cc(OC(F)(F)F)ccc5C4=O)c3C)cc2)c1 [C-1, 1-[(E)-[4-[1,4-dimethyl-5-[1-oxo-5-(trifluoromethoxy)isoindolin-2-yl]pyrazol-3-yl]phenyl]methyleneamino]-3-(2-isopropyl-5-methyl-phenyl)thiourea]	≥ 50	≥ 75	≥ 75	≥ 75	≥ 75	≥ 75	
Cc1ccc(C(C)C)c(N/C(=N/N=C/c2ccc(-c3nn(C)c(N4Cc5cc(OC(F)(F)F)ccc5C4=O)c3C)cc2)SCOC(=O)C(C)C)c1 [C-3, [(Z)-N'-[(E)-[4-[1,4-dimethyl-5-[1-oxo-5-(trifluoromethoxy)isoindolin-2-yl]pyrazol-3-yl]phenyl]methyleneamino]-N-(2-isopropyl-5-methyl-phenyl)carbamimidoyl]sulfanylmethyl 2-methylpropanoate]	≥ 50	≥ 75	≥ 75	≥ 75		≥ 75	≥ 75
CCOC(=O)OCS/C(=N\N=C\c1ccc(-c2nn(C)c(N3Cc4cc(OC(F)(F)F)ccc4C3=O)c2C)cc1)Nc1cc(C)ccc1C(C)C [C-4, [(Z)-N'-[(E)-[4-[1,4-dimethyl-5-[1-oxo-5-(trifluoromethoxy)isoindolin-2-yl]pyrazol-3-yl]phenyl]methyleneamino]-N-(2-isopropyl-5-methyl-phenyl)carbamimidoyl]sulfanylmethyl ethyl carbonate]	≥ 50	≥ 75	≥ 75	≥ 75		≥ 75	≥ 75
Cc1ccc(C(C)C)c(NC(=S)N/N=C/c2ccc(-c3nn(C)c(N4CCc5cc(OC(F)(F)F)ccc5C4=O)c3C)cc2)c1 [C-7, 1-[(E)-[4-[1,4-dimethyl-5-[1-oxo-6-(trifluoromethoxy)-3,4-dihydroisoquinolin-2-yl]pyrazol-3-yl]phenyl]methyleneamino]-3-(2-isopropyl-5-methyl-phenyl)thiourea]	≥ 50	≥ 75	≥ 75	≥ 75		≥ 75	≥ 75
Cc1ccc(C(C)C)c(N2C(=O)CS/C2=N\N=C\c2ccc(-c3nn(C)c(N4CCc5cc(OC(F)(F)F)ccc5C4=O)c3C)cc2)c1 [C-8, (2Z)-2-[(E)-[4-[1,4-dimethyl-5-[1-oxo-6-(trifluoromethoxy)-3,4-dihydroisoquinolin-2-yl]pyrazol-3-yl]phenyl]methylenehydrazono]-3-(2-isopropyl-5-methyl-phenyl)thiazolidin-4-one]	≥ 50	≥ 75	≥ 75	≥ 75	≥ 75	≥ 75	
Cc1ccc(C(C)C)c(N2C(=O)CS/C2=N\N=C\c2ccc(-c3nc(N4CCc5cc(OC(F)(F)F)ccc5C4=O)n(C)n3)cc2)c1 [C-9, (2Z)-3-(2-isopropyl-5-methyl-phenyl)-2-[(E)-[4-[1-methyl-5-[1-oxo-6-(trifluoromethoxy)-3,4-dihydroisoquinolin-2-yl]-1,2,4-triazol-3-yl]phenyl]methylenehydrazono] thiazolidin-4-one]	≥ 50	≥ 75	≥ 75	≥ 75		≥ 75	≥ 75
Cc1ccc(C(C)C)c(N2C(=O)CS/C2=N\C(=O)Nc2ccc(-c3nn(C)c(N4CCc5cc(OC(F)(F)F)ccc5C4=O)c3C)cc2)c1 [C-11, (3Z)-1-[4-[1,4-dimethyl-5-[1-oxo-6-(trifluoromethoxy)-3,4-dihydroisoquinolin-2-yl]pyrazol-3-yl]phenyl]-3-[3-(2-isopropyl-5-methyl-phenyl)-4-oxo-thiazolidin-2-ylidene]urea]	≥ 50	≥ 75	≥ 75	≥ 75	≥ 75	≥ 75	
Cc1ccc(C(C)C)c(N2C(=O)CS/C2=N\C(=O)Nc2ccc(-c3nn(C)c(N4CCc5cc(OC(F)(F)F)ccc5C4=O)c3C)cc2Cl)c1 [C-12, (3Z)-1-[2-chloro-4-[1,4-dimethyl-5-[1-oxo-6-(trifluoromethoxy)-3,4-dihydroisoquinolin-2-yl]pyrazol-3-yl]phenyl]-3-[3-(2-isopropyl-5-methyl-phenyl)-4-oxo-thiazolidin-2-ylidene] urea]	≥ 50	≥ 75	≥ 75	≥ 75	≥ 75	≥ 75	
